Tests used:
[1] = Phase 1 Part 2 (MAD) urinary PK; assay type: in vivo, human; settings: for CLR,0-6 / CLR,6-12 / CLR,32-24 / CLR,144-150 / CLR,150-156 / CLR,156-168 / Cum % excreted0-168 / CumAe0-168: Part 2 MAD, geometric mean (CV%); for CumAe0-168: urine 0 to 168 hours
Procedure: Four sequential MAD cohorts were dosed.
Urine samples were collected according to the schedule in Tables 4 and 5 for Parts 1 and 2, respectively. The pre-dose sample on Day 1 was collected any time in the 2 hours prior to dosing. A 30-minute window was allowed around collection intervals.

[2] = rat micronucleus-comet genotoxicity assays; settings: in vivo
[3] = Phase 1 Parts 1 and 2 blood pressure pharmacodynamics / exposure-response; assay type: in vivo, human
From the text: Where possible, systolic and diastolic BP measurements will be used to determine the change from baseline between each active treatment relative to that obtained on subjects receiving placebo within a study part. At each time point blood pressure data is collected, an individual subject's change from baseline will be calculated.

[4] = all cohorts and placebo subjects

In the case of `COc1cc(-n2cnc(Nc3nc(N4CCC[C@H]4C(N)=O)nc4sccc34)c2)cc(OC)c1OC.O=C(O)CC(O)(CC(=O)O)C(=O)O` [Compound A], the “cumulative amount of parent compound excreted in the urine” value ([1]; Part 2, 5 to 20 mg QD) is reported as “less than 1%”, the “CLR,0-6” value ([1]; 5 mg QD) is reported as 17.16 (90.4) mL/h and the “CLR,6-12” value ([1]; 5 mg QD) is reported as 11.11 (152.2) mL/h. The “CLR,32-24” value ([1]; 5 mg QD) was 12.32 (83.5) mL/h, the “CLR,144-150” value ([1]; 5 mg QD) was 22.90 (79.5) mL/h and the “CLR,150-156” value ([1]; 5 mg QD) was 10.85 (144.3) mL/h. The “CLR,156-168” value ([1]; 5 mg QD) was 10.66 (114.9) mL/h, the “Cum % excreted0-168” value ([1]; 5 mg QD) was 0.2515 (114.5) % and the CumAe0-168 ([1]; 5 mg QD) was 88,030 (114.5) ng. For the same compound, the “CLR,0-6” value ([1]; 10 mg QD) was 9.850 (75.1) mL/h, the “CLR,6-12” value ([1]; 10 mg QD) was 5.468 (73.0) mL/h and the “CLR,32-24” value ([1]; 10 mg QD) was 5.694 (65.7) mL/h. For the same compound, the “CLR,144-150” value ([1]; 10 mg QD) was 12.01 (64.4) mL/h, the “CLR,150-156” value ([1]; 10 mg QD) was 4.787 (168.5) mL/h and the “CLR,156-168” value ([1]; 10 mg QD) was 3.480 (152.2) mL/h. The “Cum % excreted0-168” value ([1]; 10 mg QD) was 0.1209 (66.5) %, the CumAe0-168 ([1]; 10 mg QD) was 84,600 (66.5) ng and the “CLR,0-6” value ([1]; 15 mg QD) was 14.19 (131.3) mL/h. For the same compound, the “CLR,6-12” value ([1]; 15 mg QD) was 7.172 (100.3) mL/h, the “CLR,32-24” value ([1]; 15 mg QD) was 6.837 (92.5) mL/h and the “CLR,144-150” value ([1]; 15 mg QD) was 11.49 (171.8) mL/h. For the same compound, the “CLR,150-156” value ([1]; 15 mg QD) was 8.596 (123.2) mL/h, the “CLR,156-168” value ([1]; 15 mg QD) was 6.846 (93.4) mL/h and the “Cum % excreted0-168” value ([1]; 15 mg QD) was 0.1676 (89.5) %. The CumAe0-168 ([1]; 15 mg QD) was 176,000 (89,5) ng, the “CLR,0-6” value ([1]; 20 mg QD) was 13.36 (76.2) mL/h and the “CLR,6-12” value ([1]; 20 mg QD) was 9.673 (64.5) mL/h. The “CLR,32-24” value ([1]; 20 mg QD) was 7.595 (39.1) mL/h, the “CLR,144-150” value ([1]; 20 mg QD) was 15.28 (85.8) mL/h and the “CLR,150-156” value ([1]; 20 mg QD) was 7.978 (54.7) mL/h. The “CLR,156-168” value ([1]; 20 mg QD) was 4.674 (146.4) mL/h, the “Cum % excreted0-168” value ([1]; 20 mg QD) was 0.1705 (47.2) % and the CumAe0-168 ([1]; 20 mg QD) was 238,600 (47.2) ng. The micronucleus-comet genotoxicity [2] was “negative”, the “correlation of BP with dose or exposure” value ([3]; Parts 1 and 2) was “no meaningful correlation” and the “slope of Δ diastolic BP-concentration model” value [3, 4] was 0.00151. For the same compound, the “slope of Δ systolic BP-concentration model” value [3, 4] was 0.00686.
